Laboratory results: US20170050045A1, “PHOTODYNAMIC THERAPY USING IN SITU NONLINEAR PHOTON UPCONVERSION OF NIR LIGHT BY BIOLOGICAL MEDIUM” (The Research Foundation for The State University Of New York, priority 2014, published 2017)

Legend:
HeLa cells [1] = experiment: PDT phototoxicity in cultured HeLa cells, CARS/FWM/TPA vs TPA excitation (calcein AM / propidium iodide staining); type: cell-based; conditions: 90 μM, 90 min incubation, average of four series
Excerpt: Materials and Methods. Optical setup. The experimental setup used for the present nonlinear optical excitation of PDT utilized a custom made laser scanning microscopy system with two excitation NIR laser sources. A picosecond Nd:YVO4 laser (picoTRAIN IC-10000/532-4000, HighQ Laser) with pulse width ˜5 ps and a repetition rate of 76 MHz was used as the source for the Stokes wave ωs at the fundamental output of 1064 nm as well as for synchronous pumping of a tunable optical parametric oscillator (OPO, Levante Emerald, APE) by using its 532 second harmonic output with a pulse width of ˜4 ps. […] When the beating frequency ωp-ωs is tuned to be resonant with a vibrational mode of a selected molecular bond, the CARS signal together with its nonresonant electronic FWM background signal is detected at the anti-Stokes frequency of ωas=2ωp−ωs. Using our instrument setup, a sample can be excited and the imaged in the CARS/FWM mode in the vibrational frequency range of 900-3300 cm^−1 and simultaneously at 670-990 nm in the TPEF (two-photon excited fluorescence) or/and in the SHG mode. […] Thus, this experimental setup enables concurrent operation of the system in the PDT excitation mode as well as in the imaging mode (CARS/FWM/fluorescence) which is highly suitable for PDT process monitoring. […]

HeLa cells [2] = experiment: PDT phototoxicity in HeLa cells grown on collagen substrates, SHG excitation at 818 nm (detached and PI positive cells counted); type: cell-based
Protocol: To verify the efficiency of the different nonlinear-optical conversion mechanisms for PDT excitation, cell cultured samples were used in different lay-outs permitting separation of the relative contribution of one specific nonlinear process. All experiments were made in a Petri dish through the bottom optical glass window in an inverted microscopy configuration. When cells were grown directly on the optical glass window, the pump and Stokes waves were synchronized with a zero delay and the beams were focused into the cell culture treated with the photosensitizer, CARS/FWM signals were generated by the natural intercellular biomolecules of proteins or lipids. In this case, the CARS/FWM conversion was also supplemented by the TPA process directly in the photosensitizer and a combination of CARS/FWM/TPA was obtained (see diagram 1 in FIG. 3a). To separate the TPA contribution, a pulse delay of ˜5 ps between the pump and the Stokes waves was introduced which disabled the CARS/FWM process. Therefore, with the pulse delay t, TPA of photosensitizer produced the dominant PDT effect (see diagram 2 in FIG. 3a). We used another lay-out in which cells were grown on a thin layer of polymerized collagen gel (ordered collagen structures). When the pump and Stokes laser beams were focused in collagen and had zero delay, SHG/FWM/SFG (sum frequency generation) nonlinear interactions occurred in the collagen layer (see diagram 3 in FIG. 3a). To selectively look at the SHG contribution, a pulse delay was introduced which disabled the FWM and SFG processes. The second harmonic signal generated by the collagen structure propagated to reach the cells treated with the photosensitizer, and efficiently absorbed by it to excite PDT (see diagram 4 in FIG. 3a). The dose of laser radiation delivered to the sample was estimated to be ˜60 J/cm^2 at 812.6 or 818.8 nm; ˜30 J/cm^2 at 1064 nm per scan, for CARS/FWM in proteins/lipids cellular environmental medium; and ˜60 J/cm^2 for SHG in polymerized collagen gels.
Cell culture, drug treatment and PDT design. The process of PDT was modeled on the cultured HeLa cells. FIG. 3b diagrammatically illustrates the PDT procedure. HeLa cells were grown in Advanced DMEM (Life Technologies), supplemented with 2.5% fetal calf serum (FBS) (Sigma, St. Louis, Mo.), 1% glutamax (Life Technologies), 1% Antibiotic Antimycotic Solution (Sigma) at 37° C. in a humidified atmosphere containing 5% CO2. Prior to the incorporation of the photosensitizer and PDT experiments, cells were placed into glass-bottom dishes (MatTek, Ashland, Mass.). In the experiments involving SHG, the glass-bottom dishes were coated either with monomeric collagen (Sigma) or with collagen gels polymerized on the glass window. A stock solution of Chlorin-e6 was prepared in DMSO. The PDT process in the cultured cells was initiated by nonlinear optical excitation of the Chlorin-e6 photosensitizer, which was diluted to a final concentration of 90 μM in Advanced DMEM containing 15% FBS and 0.005% Tween 80. Cells were incubated with the drug for ninety minutes, thoroughly washed to remove unincorporated drug and subsequently used for optical exposure for PDT treatment.
During the laser irradiation, cells were maintained at 37° C. and 5% CO2 in a Live-Cell incubator (Pathology Devices, Westminster, Md.) mounted on the microscope stage. Following the laser irradiation, the cells were incubated for 4 hours in a fresh regular medium at 37° C. […]

## C=Cc1c(C)c2cc3nc(c(CC(=O)O)c4[nH]c(cc5nc(cc1[nH]2)C(C)=C5CC)c(C)c4C(=O)O)[C@@H](CCC(=O)O)[C@@H]3C [Chlorin e6]
HeLa cells [1]; CARS/FWM/TPA mode (zero pulse delay), 818 nm pump + 1064 nm Stokes, 70 scans, ~6300 J/cm^2
  necrotic cells (PI positive cells): 40%
HeLa cells [1]; TPA mode (delayed pulses), same number of scans (70)
  necrotic cells (PI positive cells): 20%
HeLa cells [2]; 50 scans, 818 nm, 3000 J/cm^2
  difference in phototoxicity between polymerized and monomeric collagen groups: tenfold
HeLa cells [2]; cells on fibrillar (polymerized) collagen, 50 scans by 818 nm pulsed laser, 3000 J/cm^2, 90 μM
  detachment from the substrate, or positive PI staining of cells: up to 50%
HeLa cells [2]; cells on fibrillar collagen substrates, 75 scans, 818 nm, ~4500/cm^2, 90 μM
  detached and PI positive cells: ~70%
HeLa cells [2]; cells on monomeric collagen, 50 scans by 818 nm pulsed laser, 3000 J/cm^2, 90 μM
  cytotoxicity, by counting of the detached and PI positive cells: less than 5%
HeLa cells [2]; cells on monomeric collagen, 75 scans, 818 nm, ~4500/cm^2, 90 μM
  cells either detached or displayed PI stain: ~35%
